Measured values: patent publication US6737383B1, “Herbicidal oxadiazolidines” (priority 1999, dated 2004)

Tests used:
blackgrass = experiment: Test B pre/postemergence blackgrass; type: in vivo, Alopecurus myosuroides; settings: for Blackgrass plant response rating: scale of 0 to 10 where 0 is no effect and 10 is complete control
In short: (§1)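 Herbicidal effect was estimated by eye on a ten-point control scale after plants spent twelve to sixteen days in a greenhouse following soil or foliar treatment. Foliar sprays targeted plants at one to four leaves; all doses were formulated in a non-phytotoxic solvent with surfactant.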

surinam grass = experiment: Test B pre/postemergence surinam grass; type: in vivo, Brachiaria decumbens; settings: for B. signalgrass plant response rating: scale of 0 to 10 where 0 is no effect and 10 is complete control
In short: as §1

cocklebur = experiment: Test B pre/postemergence cocklebur; type: in vivo, Xanthium strumarium; settings: for Cocklebur plant response rating: scale of 0 to 10 where 0 is no effect and 10 is complete control
In short: as §1

corn = experiment: Test B pre/postemergence corn; type: in vivo, Zea mays; settings: for Corn plant response rating: scale of 0 to 10 where 0 is no effect and 10 is complete control
In short: as §1

crabgrass = experiment: Test B pre/postemergence crabgrass; type: in vivo, Digitaria sanguinalis; settings: for Crabgrass plant response rating: scale of 0 to 10 where 0 is no effect and 10 is complete control
In short: as §1

giant foxtail = experiment: Test B pre/postemergence giant foxtail; type: in vivo, Setaria faberii; settings: for Giant foxtail plant response rating: scale of 0 to 10 where 0 is no effect and 10 is complete control
In short: as §1

morningglory = experiment: Test B pre/postemergence morningglory; type: in vivo, Ipomoea hederacea; settings: for Morningglory plant response rating: scale of 0 to 10 where 0 is no effect and 10 is complete control
In short: as §1

pigweed = experiment: Test B pre/postemergence pigweed; type: in vivo, Amaranthus retroflexus; settings: for Redroot pigweed plant response rating: scale of 0 to 10 where 0 is no effect and 10 is complete control
In short: as §1

soybean = experiment: Test B pre/postemergence soybean; type: in vivo, Glycine max; settings: for Soybean plant response rating: scale of 0 to 10 where 0 is no effect and 10 is complete control
In short: as §1

velvetleaf = experiment: Test B pre/postemergence velvetleaf; type: in vivo, Abutilon theophrasti; settings: for Velvetleaf plant response rating: scale of 0 to 10 where 0 is no effect and 10 is complete control
In short: as §1

wheat = experiment: Test B pre/postemergence wheat; type: in vivo, Triticum aestivum; settings: for Wheat plant response rating: scale of 0 to 10 where 0 is no effect and 10 is complete control
In short: as §1

wild oat = experiment: Test B pre/postemergence wild oat; type: in vivo, Avena fatua; settings: for Wild oats plant response rating: scale of 0 to 10 where 0 is no effect and 10 is complete control
In short: as §1

rice = experiment: Test B flood test rice; type: in vivo, Oryza sativa
In short: (§2)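 Flood test on plants grown to the 2-leaf stage; treated plants kept in greenhouse twelve to sixteen days, then visually rated against controls on a 0 (no effect) to 10 (complete control) scale.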

smallflower flatsedge = experiment: Test B flood test smallflower flatsedge; type: in vivo, Cyperus difformis
In short: as §2

bamyardgrass = experiment: Test B flood test barnyardgrass; type: in vivo, Echinochloa crus-galli
In short: as §2

[1] = Postemergence, Rate 125 g/ha, scale 0 to 10, 0 is no effect, 10 is complete control
[2] = Postemergence, Rate 250 g/ha, scale 0 to 10, 0 is no effect, 10 is complete control
[3] = Preemergence, Rate 62 g/ha, scale 0 to 10 (0 no effect, 10 complete control)
[4] = Rate 500 g/ha, Postemergence, scale 0 to 10, 0 no effect, 10 complete control
[5] = Rate 62 g/ha, flood test species, Pre-emergence, visual evaluation after twelve to sixteen days
[6] = Rate 125 g/ha, under heading Pre-emergence, flood test species, visual evaluation after twelve to sixteen days
[7] = Rate 250 g/ha, Pre-emergence, flood-test species, scale 0 to 10, 0 is no effect, 10 is complete control
[8] = Rate 500 g/ha, Pre-emergence, flood test species, scale 0 to 10 (0 no effect, 10 complete control)

Structure (SMILES): Cc1nnsc1Cn1c(=O)on(C(=O)N(c2ccc(F)cc2)C(C)C)c1=O [Compound 380]
- Plant response rating, Blackgrass (blackgrass; [1]): 0
- Plant response rating, Blackgrass (blackgrass; [2]): 0
- Plant response rating, Blackgrass (blackgrass; [3]): 0
- Blackgrass plant response rating (0 to 10 scale) (blackgrass; Preemergence, Rate 125 g/ha): 0
- Blackgrass plant response rating (blackgrass; Preemergence, Rate 250 g/ha): 0
- Blackgrass plant response rating (blackgrass; Preemergence, Rate 500 g/ha): 2
- Blackgrass plant response rating (blackgrass; Rate 62 g/ha, Postemergence): 0
- Plant response rating, Blackgrass (blackgrass; [4]): 0
- Plant response rating, B. signalgrass (surinam grass; [1]): 0
- Plant response rating, B. signalgrass (surinam grass; [2]): 0
- Plant response rating, B. signalgrass (surinam grass; [3]): 0
- B. signalgrass plant response rating (0 to 10 scale, 0 is no effect, 10 is complete control) (surinam grass; Preemergence, Rate 125 g/ha): 0
- B. signalgrass plant response rating (surinam grass; Preemergence, Rate 250 g/ha): 0
- B. signalgrass plant response rating (surinam grass; Preemergence, Rate 500 g/ha): 0
- B. signalgrass plant response rating (surinam grass; Rate 62 g/ha, Postemergence): 0
- Plant response rating, B. signalgrass (surinam grass; [4]): 0
- Plant response rating, Cocklebur (cocklebur; [1]): 0
- Plant response rating, Cocklebur (cocklebur; [2]): 0
- Plant response rating, Cocklebur (cocklebur; [3]): 0
- Cocklebur plant response rating (0 to 10 scale) (cocklebur; Preemergence, Rate 125 g/ha): 0
- Cocklebur plant response rating (cocklebur; Preemergence, Rate 250 g/ha): 0
- Cocklebur plant response rating (cocklebur; Rate 62 g/ha, Postemergence): 0
- Plant response rating, Cocklebur (cocklebur; [4]): 6
- Plant response rating, Corn (corn; [1]): 0
- Plant response rating, Corn (corn; [2]): 0
- Plant response rating, Corn (corn; [3]): 0
- Corn plant response rating (0 to 10 scale) (corn; Preemergence, Rate 125 g/ha): 0
- Corn plant response rating (corn; Preemergence, Rate 250 g/ha): 0
- Corn plant response rating (corn; Preemergence, Rate 500 g/ha): 0
- Corn plant response rating (corn; Rate 62 g/ha, Postemergence): 0
- Plant response rating, Corn (corn; [4]): 0
- Plant response rating, Crabgrass (crabgrass; [1]): 1
- Plant response rating, Crabgrass (crabgrass; [2]): 2
- Plant response rating, Crabgrass (crabgrass; [3]): 1
- Crabgrass plant response rating (0 to 10 scale) (crabgrass; Preemergence, Rate 125 g/ha): 7
- Crabgrass plant response rating (crabgrass; Preemergence, Rate 250 g/ha): 7
- Crabgrass plant response rating (crabgrass; Preemergence, Rate 500 g/ha): 9
- Crabgrass plant response rating (crabgrass; Rate 62 g/ha, Postemergence): 0
- Plant response rating, Crabgrass (crabgrass; [4]): 7
- Plant response rating, Giant foxtail (giant foxtail; [1]): 2
- Plant response rating, Giant foxtail (giant foxtail; [2]): 9
- Plant response rating, Giant foxtail (giant foxtail; [3]): 2
- Giant foxtail plant response rating (0 to 10 scale) (giant foxtail; Preemergence, Rate 125 g/ha): 8
- Giant foxtail plant response rating (giant foxtail; Preemergence, Rate 250 g/ha): 9
- Giant foxtail plant response rating (giant foxtail; Preemergence, Rate 500 g/ha): 10
- Giant foxtail plant response rating (giant foxtail; Rate 62 g/ha, Postemergence): 1
- Plant response rating, Giant foxtail (giant foxtail; [4]): 9
- Plant response rating, Morningglory (morningglory; [1]): 5
- Plant response rating, Morningglory (morningglory; [2]): 5
- Plant response rating, Morningglory (morningglory; [3]): 0
- Morningglory plant response rating (0 to 10 scale) (morningglory; Preemergence, Rate 125 g/ha): 0
- Morningglory plant response rating (morningglory; Preemergence, Rate 250 g/ha): 0
- Morningglory plant response rating (morningglory; Preemergence, Rate 500 g/ha): 0
- Morningglory plant response rating (morningglory; Rate 62 g/ha, Postemergence): 5
- Plant response rating, Morningglory (morningglory; [4]): 10
- Plant response rating, Redroot pigweed (pigweed; [1]): 0
- Plant response rating, Redroot pigweed (pigweed; [2]): 0
- Plant response rating, Redroot pigweed (pigweed; [3]): 0
- Redroot pigweed plant response rating (0 to 10 scale) (pigweed; Preemergence, Rate 125 g/ha): 3
- Redroot pigweed plant response rating (pigweed; Preemergence, Rate 250 g/ha): 3
- Redroot pigweed plant response rating (pigweed; Preemergence, Rate 500 g/ha): 6
- Redroot pigweed plant response rating (pigweed; Rate 62 g/ha, Postemergence): 0
- Plant response rating, Redroot pigweed (pigweed; [4]): 5
- Plant response rating, Soybean (soybean; [1]): 1
- Plant response rating, Soybean (soybean; [2]): 1
- Plant response rating, Soybean (soybean; [3]): 0
- Soybean plant response rating (0 to 10 scale) (soybean; Preemergence, Rate 125 g/ha): 0
- Soybean plant response rating (soybean; Preemergence, Rate 250 g/ha): 0
- Soybean plant response rating (soybean; Preemergence, Rate 500 g/ha): 0
- Soybean plant response rating (soybean; Rate 62 g/ha, Postemergence): 0
- Plant response rating, Soybean (soybean; [4]): 1
- Plant response rating, Velvetleaf (velvetleaf; [1]): 0
- Plant response rating, Velvetleaf (velvetleaf; [2]): 0
- Plant response rating, Velvetleaf (velvetleaf; [3]): 0
- Velvetleaf plant response rating (0 to 10 scale) (velvetleaf; Preemergence, Rate 125 g/ha): 0
- Velvetleaf plant response rating (velvetleaf; Preemergence, Rate 250 g/ha): 0
- Velvetleaf plant response rating (velvetleaf; Preemergence, Rate 500 g/ha): 0
- Velvetleaf plant response rating (velvetleaf; Rate 62 g/ha, Postemergence): 0
- Plant response rating, Velvetleaf (velvetleaf; [4]): 3
- Plant response rating, Wheat (wheat; [1]): 0
- Plant response rating, Wheat (wheat; [2]): 0
- Plant response rating, Wheat (wheat; [3]): 0
- Wheat plant response rating (0 to 10 scale) (wheat; Preemergence, Rate 125 g/ha): 0
- Wheat plant response rating (wheat; Preemergence, Rate 250 g/ha): 0
- Wheat plant response rating (wheat; Preemergence, Rate 500 g/ha): 0
- Wheat plant response rating (wheat; Rate 62 g/ha, Postemergence): 0
- Plant response rating, Wheat (wheat; [4]): 0
- Plant response rating, Wild oats (wild oat; [1]): 0
- Plant response rating, Wild oats (wild oat; [2]): 0
- Plant response rating, Wild oats (wild oat; [3]): 0
- Wild oats plant response rating (0 to 10 scale) (wild oat; Preemergence, Rate 125 g/ha): 0
- Wild oats plant response rating (wild oat; Preemergence, Rate 250 g/ha): 0
- Wild oats plant response rating (wild oat; Preemergence, Rate 500 g/ha): 4
- Wild oats plant response rating (wild oat; Rate 62 g/ha, Postemergence): 0
- Plant response rating, Wild oats (wild oat; [4]): 0
- Plant response rating, Rice (0 to 10 scale, 0 is no effect, 10 is complete control) (rice; [5]): 0
- Rice plant response rating (0 to 10 scale, 0 is no effect, 10 is complete control) (rice; [6]): 0
- Rice plant response rating (rice; [7]): 0
- Rice plant response rating (rice; [8]): 0
- Plant response rating, S. Flatsedge (0 to 10 scale, 0 is no effect, 10 is complete control) (smallflower flatsedge; [5]): 0
- S. Flatsedge plant response rating (0 to 10 scale, 0 is no effect, 10 is complete control) (smallflower flatsedge; [6]): 0
- S. Flatsedge plant response rating (smallflower flatsedge; [7]): 0
- S. Flatsedge plant response rating (smallflower flatsedge; [8]): 0
- Plant response rating, Barnyardgrass (0 to 10 scale, 0 is no effect, 10 is complete control) (bamyardgrass; [5]): 0
- Barnyardgrass plant response rating (0 to 10 scale, 0 is no effect, 10 is complete control) (bamyardgrass; [6]): 0
- Barnyardgrass plant response rating (bamyardgrass; [7]): 0
- Barnyardgrass plant response rating (bamyardgrass; [8]): 0
